# Laboratory results: PMC6522941, “Design, synthesis, and anticancer evaluation of novel quinoline derivatives of ursolic acid with hydrazide, oxadiazole, and thiadiazole moieties as potent MEK inhibitors” (Journal of Enzyme Inhibition and Medicinal Chemistry, 2019)
# What was measured:
# HeLa cells = assay: Cell cycle analysis (PI staining, flow cytometry); assay type: cell-based, human; conditions: 0.2 μM, 48 h
# Method: Cell cycle distributions in HeLa cells were determined through PI staining and analysed by flow cytometry. HeLa cells were seeded into a six-well plate at 5 × 10^5 cell/mL and treated with different concentrations of compound 4d for 48 h. After treatment, cells were detached with 0.25% trypsin, harvested by centrifugation, washed twice with ice-cold PBS and then fixed and permeabilised with ice-cold 70% ethanol at 4 °C overnight. Ethanol was removed and the cells were washed twice with ice-cold PBS. After this, the cells were treated with 100 μL of RNase (100 μg/mL) at 37 °C for 30 min, followed by incubation with 400 μL of DNA staining solution propidium iodide (PI) (1 mg/mL) in the dark at 4 °C for 30 min. The samples were analysed by a flow cytometer (Becton-Dickinson FACSCalibur, Totowa, NJ, USA) and data were analysed using the FlowJo software (Becton-Dickinson & Co, Totowa, NJ, USA).
# Cell cycle distribution in HeLa cells was examined to determine whether or not compound 4d inhibited the proliferation of these cells through cell cycle arrest. HeLa cells were treated with different concentrations of compound 4d (0, 0.05, 0.1, and 0.2 μM) for 48 h. Cell cycle distribution was investigated by flow cytometric analysis after staining the DNA of the treated cells by PI. […] This phenomenon was accompanied by a decrease in the population of cells in G2/M phase.
# MEK1 = target: T1, MEK1 (Homo sapiens, UniProt Q02750); assay: In vitro MEK1 kinase assay (ADP-Glo); assay type: biochemical; conditions: recombinant GST-MEK1, GST-ERK2 (inactive) substrate, 10 μM ATP
# T1 construct: purchased Carna Biosciences, Kobe, Japan
# Method: An in vitro kinase assay of MEK1 was performed using ADP-Glo kinase assay (Promega, Madison, WI, USA) according to the manufacturer’s protocol. […] Reactions were stopped by adding 5 μL of ADP-Glo reagent to each well. After incubating at 22 °C for 40 min, 10 μL of the kinase detection reagent was added and the plates were incubated for another 30 min at 22 °C in the dark. The reaction mixture was analysed by EnSpire (PerkinElmer, Waltham, MA, USA).
# The Raf/MEK/ERK pathway is the downstream of Ras activation, and the abnormal expression or phosphorylation of the associated proteins is essential for cancer cell proliferation. In this pathway, MEK kinase is an important anticancer target because of its key roles in regulating the cancer cell apoptosis and oncogenic transformation[51]^,[52]. Among MEK proteins, MEK1 and MEK2 are known as substrate-specific kinases which phosphorylate their downstream kinase ERK1/2.
# QSG-7701 cells = assay: MTT cytotoxic assay, normal hepatocyte QSG-7701; assay type: cell-based, human
# Method: Human breast cancer cell line (MDA-MB-231), cervical carcinoma cell line (HeLa), the liver cancer cell line (SMMC-7721) and normal hepatocyte cell line (QSG-7701) were maintained in Dulbecco Modified Eagle Medium (DMEM) containing 4.0 mM L-Glutamine and 4500 mg/L Glucose supplemented with 10% (v/v) foetal bovine serum (FBS) and 100 U/mL penicillin/streptomycin at 37 °C in humidified atmosphere of 5% CO2 and 95% air.
# Exponentially growing MDA-MB-231, Hela and SMMC-7721 cell lines were seeded into 96-well plate for 100 μL and treated with different concentrations of the synthetic compounds for 72 h, and then 10 μL of MTT (10 mg/mL) was added and incubation for 3 ∼ 4 h at 37 °C. The generated purple formazan crystals from viable can be dissolved by adding 100 μL DMSO. The plates were swirled gently for 5 min and quantified by measuring the OD of the plates at the wavelength of 540 nm. Each concentration was repeated in three wells and the same experimental condition was provided for all compounds. The results were expressed as IC50 values with standard deviations, which was defined as the concentration at which 50% survival of cells was discerned. Etoposide was co-assayed as positive control.
# The in vitro cytotoxic activity of derivatives 3a–d, 4a–h, 5a–h, and 6a–h were evaluated by MTT assay against human breast cancer cell line (MDA-MB-231), cervical carcinoma cell line (HeLa), hepatocarcinoma cell line (SMMC-7721) and human normal hepatocyte cell line (QSG-7701). The anticancer drug etoposide was co-assayed as the positive control. All tested compounds were dissolved in DMSO and the stock solutions were diluted by DMEM medium before treatment of the cultured cells.
# [1] = system: Cytochrome c, Bax, Bcl-2, Caspase-3, Caspase-9 in HeLa cells; assay: Western blot of mitochondrial apoptosis markers; assay type: cell-based, human; conditions: 0.1 and 0.2 μM, 48 h
# Method: HeLa cells were seeded at a density of 5 × 10^6 cells per well and attached for 8 h, and then treated with different concentrations of compound 4d for 48 h. After the treatment, the cells were harvested and washed twice with PBS. The harvested cells were lysed with radio-immunoprecipitation assay (RIPA) lysis buffer (Beyotime Biotech., Nantong, China) with 1% cocktail (Sigma-Aldrich, St. Louis, MO, USA). Whole-cell protein lysates were prepared and centrifuged at 12,000 rpm for 10 min at 4 °C. The total proteins were determined using Bradford reagent (Bio-Rad Laboratories, Inc., Hercules, CA, USA). Exactly 40 μg of protein per lane was separated through sodium dodecyl sulphate-polyacrylamide gel electrophoresis and then transferred onto a polyvinylidene difluoride membrane (Millipore, Bedford, MA, USA). The membranes were incubated with each antibody and detected through immunoblot analysis. All of the antibodies were purchased from Cell signalling Technology, Inc. (Boston, MA, USA) and diluted in accordance with the manufacturer’s instruction. Proteins were visualised using a C-Digit® imaging system (LI-COR, Lincoln, NE, USA).
# To further explore whether compound 4d induced apoptosis via the mitochondrial signalling pathway, a number of key protein markers involved in mitochondria-mediated apoptosis were examined by Western blot analysis. The Bcl-2 family members are important regulators of the mitochondrial apoptotic pathway. Two most important members of Bcl-2 family, the anti-apoptotic protein Bcl-2 and the pro-apoptotic protein Bax, are key regulators of this progress. As shown in Figure 6(a), the expression level of Bax was elevated in HeLa cells compared with the control group, whereas the expression level of Bcl-2 was decreased after treatment with compound 4d for 48 h. […] Moreover, cytochrome c is reported as a key protein involved in the activation of the downstream caspases that trigger apoptosis. Caspases are a family of cysteinyl aspartate-specific proteases involved in apoptosis, which can be classified into groups of initiators (caspases 8, 9, and 10) and executioners (caspases 3, 6, and 7)[48]^,[49]. In this assay, we also examined the roles of cytochrome c, caspase-3, and caspase-9 in the cellular response to compound 4d.
# T1 sequence (Q02750 whole entry): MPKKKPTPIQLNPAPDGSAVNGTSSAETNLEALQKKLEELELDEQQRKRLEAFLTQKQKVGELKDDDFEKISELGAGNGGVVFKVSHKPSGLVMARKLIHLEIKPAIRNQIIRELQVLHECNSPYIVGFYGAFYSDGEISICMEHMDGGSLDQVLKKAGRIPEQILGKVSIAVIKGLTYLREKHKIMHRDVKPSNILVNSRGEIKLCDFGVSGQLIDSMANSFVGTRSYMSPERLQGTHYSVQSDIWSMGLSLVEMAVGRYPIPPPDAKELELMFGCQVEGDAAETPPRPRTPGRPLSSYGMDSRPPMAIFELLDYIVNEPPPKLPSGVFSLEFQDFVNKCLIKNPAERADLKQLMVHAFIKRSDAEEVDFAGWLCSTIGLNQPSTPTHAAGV
smiles,measurement,setting,value
"CC(=O)NNC(=O)C12CCC(C)C(C)C1C1=CCC3C4(C)Cc5cc6cc(Cl)ccc6nc5C(C)(C)C4CCC3(C)C1(C)CC2 (centres unmarked) [Compound 4d, N-[5′-chloro-ursa-12-en-(2,3)-quinoline-28-oyl]-acetohydrazide]",population of cells in G2/M phase,HeLa cells; control 25.95,8.51%
same,population of cells in G0/G1 phase,HeLa cells; control 48.32,63.75%
same,IC50,MEK1,0.064 µM
same,IC50,"QSG-7701 cells; Homo sapiens, QSG7701, MTT, normal hepatocyte cell line",10.8 ± 0.72 µM
same,Selectivity,QSG-7701 cells; IC50 (QSG-7701)/IC50 (HeLa),134.5
same,level of caspase-3,[1],significantly increased
same,level of caspase-9,[1],significantly increased
same,ratio of Bax/Bcl-2,[1],increased in a dose-dependent manner
same,expression level of Bax,[1]; compared with control,elevated
same,expression level of Bcl-2,[1]; compared with control,decreased
same,level of cytochrome c,[1]; cytosol,significantly increased
